Results reported in US7348138B2, “Method of inducing cell death using West Nile virus capsid protein” (priority 2000, dated 2008).

What was measured:
splenic lymphocytes = assay: Lymphoproliferative assay (tritiated thymidine incorporation, stimulation index); format: cell-based, mice
Procedure: To evaluate the T cell-mediated immune response against the WNV Cp gene product, an in vivo mouse experiment was set up. The quadriceps muscles of 6- to 8-week-old female BALB/c mice (Harlan Sprague Dawley, Inc., Indianapolis, Ind.) were injected with 100 μg of pWNVh-DJY, pWNVy-DJY, or pcDNA3.1 (without an insert) in PBS and 0.25% bupivacaine-HCl (Sigma, St Louis, Mo.). Two weeks later, the mice received a boost of another 100 μg DNA injections. Thirteen days after the boost injection, the mice were sacrificed, the spleens were harvested, and the lymphocytes were isolated and tested for cellular immune responses.
Harvested splenic lymphocytes were pooled for two mice in each immunized group and suspended to a concentration of 5×10^6 cells/ml. A 100 μl aliquot, containing 5×10^5 cells, was immediately added to each well of a 96-well, flat bottom microtiter plate. Reconstituted peptide, in vitro translated protein, or in vitro translation control were added to the wells, at concentrations of 5 μg/ml and 1 μg/ml (and 0.5 μg/ml for in vitro translated protein and in vitro translation control protein). Concanavalin A (Con A) was used as a positive proliferation control. The assay conditions were set up in triplicate. The cells were incubated at 37° C. in 5% CO2 for three days. One μCi of tritiated thymidine was added to each well and the cells were incubated for 18 hours at 37° C. The plate was harvested and the amount of incorporated tritiated thymidine was measured in a Beta Plate reader (Wallac, Turku, Finland). Stimulation Index was determined from the formula: Stimulation Index (SI)=(experimental count/spontaneous count). Spontaneous count wells included 5% fetal bovine serum which served as an irrelevant protein control.
The values presented for each condition are stimulation indices averaged over triplicate wells. For each immunization group tested, splenocytes were pooled from two mice within the group. “H” indicates splenocytes from the pWNVh-DJY-immunized group. “Y” indicates splenocytes from the pWNVh-DJY-immunized group of mice. “pcDNA3.1” indicates splenocytes from the pcDNA3.1-immunized control group of mice. Peptides 1, 2, and 3 are the WNVC-P1, WNVC-P2, and WNVC-P3 peptides described above. “Peptide 123” indicates a mixture of peptide 1, 2, and 3. “Y protein” indicates the Cp protein in vitro translated from the pWNVy-DJY construct. “Ctrl pro” indicates the in vitro translation control, generated with pcDNA3.1 vector containing no expressible insert, as described above. Detection of Intracellular IFN-γ by Flow Cytometry

[1] = tested on: SH-SY5Y neuroblastoma cells; assay: TUNEL analysis of cells incubated with peptide; format: cell-based; conditions: 10 μg peptide per 1×10^5 cells, 24 hours
Procedure: Peptide WNVC-P3, as described in Example 3 and FIG. 11 above, was tested for its ability to induce apoptosis in cells in culture. Peptide WNVC-P3 was incubated with SH-SY5Y neuroblastoma cells (ATCC; Manassas, Va.) at a concentration of 10 μg peptide per 1×10^5 cells.

[2] = splenocytes from H (pWNVh-DJY-immunized) mice, protein or peptide 1 μg/ml
[3] = splenocytes from H (pWNVh-DJY-immunized) mice, protein or peptide 5 μg/ml
[4] = splenocytes from Y group of immunized mice, protein or peptide 1 μg/ml
[5] = splenocytes from Y group of immunized mice, protein or peptide 5 μg/ml
[6] = splenocytes from pcDNA3.1-immunized control mice, protein or peptide 1 μg/ml
[7] = splenocytes from pcDNA3.1-immunized control mice, protein or peptide 5 μg/ml

Substance | Stimulation Index (SI) (splenic lymphocytes; [2]) | Stimulation Index (SI) (splenic lymphocytes; [3]) | Stimulation Index (SI) (splenic lymphocytes; [4]) | Stimulation Index (SI) (splenic lymphocytes; [5]) | Stimulation Index (SI) (splenic lymphocytes; [6]) | Stimulation Index (SI) (splenic lymphocytes; [7]) | TUNEL-positive cells [1]
KRAMLSLIDGKGPIRFVLA [Peptide 2] | 1.3 | 1.7 | 1.8 | 1.6 | 1.0 | 0.9 | –
Concanavalin A [Con A, reference compound] | – | 686.5 | – | 366.9 | – | 71.8 | –
TLTSAINRRSSKQKKRGGKTGI [Peptide 3] | 2.0 | 1.5 | 1.4 | 1.1 | 0.7 | 0.8 | TUNEL-positive cells were identified
SKKPGGPGKSRAVNMLKRGMPR [Peptide 1] | 0.7 | 0.5 | 1.2 | 0.8 | 1.3 | 0.9 | –
